Counter-ions that a name gives are not always drawn. Like-named read-outs stand apart in the source and are kept apart here.
Legend:
human Y1 receptor = biological target: T1, human Y1 receptor (Homo sapiens, UniProt P25929); test: Radioligand binding to membranes, cloned human Y1 receptor; settings: hNPY-1 (one cell for Y1, Y2, Y4), read-out: Ki, nM hNPY-1,2,4
T1 construct: expressed in transfected cells; host or cells: human embryonic kidney 293 cells, e.g. 293-hY1-5 (ATCC CRL-12121)
T1 sequence (P25929 1-384): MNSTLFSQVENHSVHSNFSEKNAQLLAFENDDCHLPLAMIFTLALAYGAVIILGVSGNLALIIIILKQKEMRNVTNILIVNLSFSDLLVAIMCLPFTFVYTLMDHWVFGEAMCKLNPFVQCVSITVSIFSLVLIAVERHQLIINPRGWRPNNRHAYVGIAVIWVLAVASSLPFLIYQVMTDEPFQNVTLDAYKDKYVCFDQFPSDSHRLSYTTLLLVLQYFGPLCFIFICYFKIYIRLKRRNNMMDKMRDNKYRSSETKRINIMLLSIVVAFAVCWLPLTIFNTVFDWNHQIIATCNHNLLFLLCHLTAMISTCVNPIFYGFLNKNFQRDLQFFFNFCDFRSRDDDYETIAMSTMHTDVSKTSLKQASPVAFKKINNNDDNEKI
Protocol: (§1) Binding of the compounds of the present invention to human Y1, Y2, Y4, and Y5 receptors was evaluated using stably transfected 293 or LM(tk-) cells as described above.
(§2) Membranes were harvested from COS-7 cells 48 hours after transient transfection. Adherent cells were washed twice in ice-cold phosphate buffered saline (138 mM NaCl, 8.1 mM Na2HPO4, 2.5 mM KCl, 1.2 mM KH2PO4, 0.9 mM CaCl2, 0.5 mM MgCl2, pH 7.4) and lysed by sonication in ice-cold sonication buffer (20 mM Tris-HCl, 5 mM EDTA, pH 7.7). Large particles and debris were cleared by low speed centrifugation (200×g, 5 min, 4° C.). Membranes were collected from the supernatant fraction by centrifugation (32,000×g, 18 min, 4° C.), washed with ice-cold hypotonic buffer, and collected again by centrifugation (32,000×g, 18 min, 4° C.). The final membrane pellet was resuspended by sonication into a small volume of ice-cold binding buffer (˜1 ml for every 5 plates: 10 mM NaCl, 20 mM HEPES, 0.22 mM KH2PO4, 1.26 mM CaCl2, 0.81 mM MgSO4, pH 7.4). Protein concentration was measured by the Bradford method (Bradford, 1976) using Bio-Rad Reagent, with bovine serum albumin as a standard. Membranes were held on ice for up to one hour and used fresh, or flash-frozen and stored in liquid nitrogen.
(§3) Membranes were prepared similarly from 293, LM(tk-), and NIH-3T3 cells.
(§4) Membrane suspensions were diluted in binding buffer supplemented with 0.1% bovine serum albumin to yield an optimal membrane protein concentration so that ^125I-PYY (or alternative radioligand such as ^125I-NPY, ^125I-NYY3-36, or ^125I-[Leu^31Pro^34]PYY) bound by membranes in the assay was less than 10% of ^125I-PYY (or alternative radioligand) delivered to the sample (100,000 dpm/sample=0.08 nM for competition binding assays). ^125I-PYY (or alternative radioligand) and peptide competitors were also diluted to desired concentrations in supplemented binding buffer. Individual samples were then prepared in 96-well polypropylene microtiter plates by mixing ^125I-PYY (25 μL) (or alternative radioligand), competing peptides or supplemented binding buffer (25 μL), and finally, membrane suspensions (200 μL). Samples were incubated in a 30° C. water bath with constant shaking for 120 min. Incubations were terminated by filtration over Whatman GF/C filters (pre-coated with 1% polyethyleneimine and air-dried before use), followed by washing with 5 mL of ice-cold binding buffer. Filter-trapped membranes were impregnated with MeltiLex solid scintillant (Wallac, Turku, Finland) and counted for ^125I in a Wallac Beta-Plate Reader. Alternatively, incubations were carried out in GF/C filter plates (pre-coated with 1% polyethyleneimine and air-dried before use), followed by vacuum filtration and three washes of 300 μL of ice-cold binding buffer. 50 μL of UltimaGold (Packard) scintillant were added and counted for ^125I, in a Wallac MicroBeta Trilux. Non-specific binding was defined by 300 nM human NPY for all receptors except the Y4 subtypes; 100 nM human PP was used for the human Y4 and 100 nM rat PP for the rat Y4.

human Y2 receptor = biological target: T2, human Y2 receptor (Homo sapiens, UniProt P49146); test: Radioligand binding to membranes, cloned human Y2 receptor
T2 sequence (P49146 1-381): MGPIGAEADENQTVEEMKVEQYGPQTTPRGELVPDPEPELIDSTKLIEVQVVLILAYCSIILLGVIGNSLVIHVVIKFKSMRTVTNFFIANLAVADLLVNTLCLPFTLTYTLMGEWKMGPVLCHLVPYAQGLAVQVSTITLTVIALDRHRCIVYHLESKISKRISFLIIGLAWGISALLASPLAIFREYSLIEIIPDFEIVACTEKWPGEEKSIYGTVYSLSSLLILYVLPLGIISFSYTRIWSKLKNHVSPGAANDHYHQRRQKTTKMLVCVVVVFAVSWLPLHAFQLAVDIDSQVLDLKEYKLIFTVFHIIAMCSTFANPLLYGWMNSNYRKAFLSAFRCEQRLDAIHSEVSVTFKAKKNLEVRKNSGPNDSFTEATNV
Protocol: as §1, §2, §3, §4

human Y5 receptor = biological target: T3, human Y5 receptor (Homo sapiens, UniProt Q15761); test: Radioligand binding to membranes, cloned human Y5 receptor; settings: read-out: Ki, nM hNPY-5
T3 construct: expressed in transfected cells; host or cells: mouse fibroblast LM(tk-) cells, e.g. L-hY5-7 (ATCC CRL-11995)
T3 sequence (Q15761 1-445): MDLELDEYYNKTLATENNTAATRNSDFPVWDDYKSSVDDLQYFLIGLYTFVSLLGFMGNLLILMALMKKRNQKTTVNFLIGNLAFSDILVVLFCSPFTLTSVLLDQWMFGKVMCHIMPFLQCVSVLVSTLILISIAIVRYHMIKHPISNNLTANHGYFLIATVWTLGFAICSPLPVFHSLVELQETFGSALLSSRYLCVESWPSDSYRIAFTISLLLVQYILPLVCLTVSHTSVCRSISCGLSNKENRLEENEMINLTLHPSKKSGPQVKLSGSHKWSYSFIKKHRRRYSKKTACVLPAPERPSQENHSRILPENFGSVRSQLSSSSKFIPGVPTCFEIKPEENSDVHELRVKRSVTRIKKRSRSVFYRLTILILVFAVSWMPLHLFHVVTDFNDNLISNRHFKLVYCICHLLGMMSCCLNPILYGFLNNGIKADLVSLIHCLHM

human Y4 receptor = biological target: T4, human Y4 receptor (Homo sapiens, UniProt P50391); test: Radioligand binding to membranes, cloned human Y4 receptor; settings: hNPY-4 (one cell for Y1, Y2, Y4), read-out: Ki, nM hNPY-1,2,4
T4 construct: expressed in transfected cells; host or cells: mouse fibroblast LM(tk-) cells, e.g. L-hY4-3 (ATCC CRL-11779)
T4 sequence (P50391 whole entry): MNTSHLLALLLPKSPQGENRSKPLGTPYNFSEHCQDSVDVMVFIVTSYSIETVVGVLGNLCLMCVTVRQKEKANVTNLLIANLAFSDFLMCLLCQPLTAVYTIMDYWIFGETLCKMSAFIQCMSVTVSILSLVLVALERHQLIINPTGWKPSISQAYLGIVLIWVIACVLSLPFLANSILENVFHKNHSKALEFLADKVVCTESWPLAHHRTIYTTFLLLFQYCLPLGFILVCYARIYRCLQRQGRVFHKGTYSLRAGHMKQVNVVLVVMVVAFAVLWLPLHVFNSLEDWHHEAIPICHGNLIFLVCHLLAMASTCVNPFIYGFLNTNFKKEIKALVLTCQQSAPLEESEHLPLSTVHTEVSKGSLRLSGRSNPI
Protocol: as §1, §2, §3, §4

Row | SMILES | melting point | Ki (human Y1 receptor; Table 5) | Ki (human Y2 receptor) | Ki (human Y5 receptor; Table 5) | Ki (human Y4 receptor; Table 5) | also measured
1 | COc1ccc(C)cc1S(=O)(=O)NCCCCCNc1nc(-c2ccncc2)cs1 (as salt: chloride) [Example 75, 2-(5-(2-Methoxy-5-methyl)phenylsulfonylamino)pentylamino-4-(4-pyridyl)thiazole hydrogen chloride] | 116 to 117 °C |  |  |  |  | 
2 | NS(=O)(=O)NCCCCCNc1nc(-c2ccccn2)cs1 (as salt: chloride) [Example 69, 2-(5-(Aminosulfonylamino)pentyl)amino-4-(2-pyridyl)thiazole hydrogen chloride] | 68 to 70 °C |  |  |  |  | 
3 | O=S(=O)(NCCCCCNc1nc(-c2ccncc2)cs1)c1ccccc1F (as salt: chloride) [Example 73, 2-(5-(2-Fluoro)phenylsulfonylamino)pentylamino-4-(4-pyridyl)thiazole hydrogen chloride] | 97 to 98 °C |  |  |  |  | 
4 | COc1ccc(C)cc1S(=O)(=O)N[C@H]1CC[C@H](CNc2nc(-c3ccccn3)cs2)CC1 (as salt: chloride) [Example 83, trans-2-(4-(2-Methoxy-5-methylphenyl)sulfonylamino)-cyclohexylmethylamino-4-(2-pyridyl)thiazole dihydrogen chloride] | 111 to 113 °C |  |  |  |  | 
5 | COc1ccc(S(=O)(=O)NCCCCCNc2nc(-c3ccccn3)cs2)cc1 (as salt: chloride) [Example 62, 2-(5-(4-Methoxyphenyl)sulfonylamino)pentylamino-4-(2-pyridyl)thiazole hydrogen chloride] | 54 to 57 °C |  |  |  |  | 
6 | COc1ccc(C)cc1S(=O)(=O)NCCCCCNc1nc(-c2cccnc2)cs1 (as salt: chloride) [Example 72, 2-(5-(2-Methoxy-5-methyl)phenylsulfonylamino)pentylamino-4-(3-pyridyl)thiazole hydrogen chloride] | 119 to 120 °C |  |  |  |  | 
7 | O=S(=O)(Cc1ccccc1)NCCCCCNc1nc(-c2ccccn2)cs1 (as salt: chloride) [Example 66, 2-(5-(Benzylsulfonylamino)pentylamino-4-(2-pyridyl)thiazole hydrogen chloride] | 62 to 64 °C |  |  |  |  | 
8 | O=S(=O)(NCCCCCNc1nc(-c2ccccn2)cs1)c1cccs1 (as salt: chloride) [Example 60, 4-(2-Pyridyl)-2-(5-(2-thienyl)sulfonylaminopentyl)-amino-thiazole hydrogen chloride] | 75 to 77 °C |  |  |  |  | 
9 | O=S(=O)(NCCCCCNc1nc(-c2cccnc2)cs1)c1ccccc1F (as salt: chloride) [Example 70, 2-(5-(2-Fluorophenyl)sulfonylamino)pentylamino-4-(3-pyridyl)thiazole hydrogen chloride] | 84 to 85 °C |  |  |  |  | 
10 | COc1ccc(C)cc1S(=O)(=O)NCCCCCNc1nc(-c2ccccn2)cs1 (as salt: chloride) [Example 65, 2-(5-(2-Methoxy-5-methylphenyl)sulfonylamino)pentylamino-4-(2-pyridyl)thiazole hydrogen chloride] | 155 to 156 °C |  |  |  |  | 
11 | COc1ccc(C)cc1S(=O)(=O)NCCCCCNc1nc(-c2cccnc2)cs1 [Example 72, 2-(5-(2-Methoxy-5-methyl)phenylsulfonylamino)pentylamino-4-(3-pyridyl)thiazole hydrogen chloride] |  | > 10000 nM | > 10 µM | 50 nM | > 10000 nM | 
12 | O=S(=O)(NCCCCCNc1nc(-c2ccncc2)cs1)c1ccccc1F [Example 73, 2-(5-(2-Fluoro)phenylsulfonylamino)pentylamino-4-(4-pyridyl)thiazole hydrogen chloride] |  | > 10000 nM | > 10 µM | 204 nM | > 10000 nM | 
13 | Cc1noc(C)c1S(=O)(=O)NCCCCCNc1nc(-c2ccncc2)cs1 [Example 74, 2-(5-(3,5-Dimethylisoxazol-4-yl)sulfonylamino)pentylamino-4-(4-pyridyl)thiazole hydrogen chloride] |  | > 10000 nM | > 10 µM | 745 nM | > 10000 nM | 
14 | COc1ccc(C)cc1S(=O)(=O)NCCCCCNc1nc(-c2ccn(S(=O)(=O)c3ccccc3)c2)cs1 [Example 80, N1-[5-({4-[1-(Phenylsulfonyl)-1H-3-pyrrolyl]-1,3-thiazol-2-yl}amino)pentyl]-2-methoxy-5-methyl-1-benzenesulfonamide] |  | > 10000 nM | > 10 µM | 40 nM | > 10000 nM | 
15 | Cc1noc(C)c1S(=O)(=O)NCCCCCNc1nc(-c2cccnc2)cs1 [Example 71, 2-(5-(3,5-Dimethylisoxazol-4-yl)sulfonylamino)pentylamino-4-(3-pyridyl)thiazole hydrogen chloride] |  | > 10000 nM | > 10 µM | 37 nM | > 10000 nM | 
16 | CS(=O)(=O)NCCCCCNc1nc2c(s1)CCSc1ccc(F)cc1-2 [Example 159, N-{5-[(9-Fluoro-4,5-dihydrobenzo[2,3]thiepino[4,5-d][1,3]thiazol-2-yl)amino]pentyl}methanesulfonamide] |  |  | > 10 µM |  |  | Ki (human Y1 receptor; Table 6): > 10000 nM; Ki (human Y5 receptor; Table 6): 6.1 nM; Ki (human Y4 receptor; Table 6): > 10000 nM
17 | O=S(=O)(NCCCCCNc1nc(-c2cccnc2)cs1)c1ccccc1F [Example 70, 2-(5-(2-Fluorophenyl)sulfonylamino)pentylamino-4-(3-pyridyl)thiazole hydrogen chloride] |  | > 10000 nM | > 10 µM | 21 nM | > 10000 nM | 
18 | COc1ccc(C)cc1S(=O)(=O)NCCCCCNc1nc(-c2cc3ccccc3s2)cs1 [Example 76, N1-{5-[(4-Benzo[b]thiophen-2-yl-1,3-thiazol-2-yl)amino]-pentyl}-2-methoxy-5-methyl-1-benzenesulfonamide] |  | > 10000 nM | > 10 µM | 11 nM | > 10000 nM | 
19 | O=S(=O)(NCCCCCNc1nc2c(s1)CCSc1ccc(F)cc1-2)c1cccs1 [Example 162, N2-{5-[(9-Fluoro-4,5-dihydrobenzo[2,3]thiepino[4,5-d][1,3]thiazol-2-yl)amino]pentyl}-2-thiophenesulfonamide] |  |  | > 10 µM |  |  | Ki (human Y1 receptor; Table 6): > 10000 nM; Ki (human Y5 receptor; Table 6): 4.8 nM; Ki (human Y4 receptor; Table 6): > 10000 nM
20 | COc1ccc(C)cc1S(=O)(=O)NCCCCCNc1nc(-c2cc(-c3ccccc3)on2)cs1 [Example 78] |  | > 10000 nM | > 10 µM | 891 nM | > 10000 nM | 
21 | COc1ccc(C)cc1S(=O)(=O)NCCCCCNc1nc(-c2ccsc2)cs1 [Example 79, N1-(5-{[4-(3-Thienyl)-1,3-thiazol-2-yl]amino}pentyl)-2-methoxy-5-methyl-1-benzenesulfonamide] |  | > 10000 nM | > 10 µM | 545 nM | > 10000 nM | 
22 | CN(C)S(=O)(=O)NCCCCCNc1nc(-c2ccsc2)cs1 [Example 82, N,N-Dimethyl-N′-(5-{[4-(3-Thienyl)-1,3-thiazol-2-yl]amino}pentyl)sulfamide] |  | > 10000 nM | > 10 µM | 8.3 nM | > 10000 nM | 
23 | Cc1cccc(F)c1S(=O)(=O)NC[C@H]1CC[C@H](Nc2nc3c(s2)CCSc2ccccc2-3)CC1 [Example 158, N1-{[4-(4,5-Dihydrobenzo[2,3]thiepino[4,5-d][1,3]thiazol-2-ylamino)cyclohexyl]methyl}-2-fluoro-6-methyl-1-benzenesulfonamide] |  |  | > 10 µM |  |  | Ki (human Y1 receptor; Table 6): > 10000 nM; Ki (human Y5 receptor; Table 6): 8.2 nM; Ki (human Y4 receptor; Table 6): > 10000 nM
24 | O=S(=O)(NCCCCCCNc1nc2c(s1)CCSc1ccccc1-2)c1cccs1 [Example 106] |  |  | > 10 µM |  |  | Ki (human Y1 receptor; Table 6): > 10000 nM; Ki (human Y5 receptor; Table 6): 2.9 nM; Ki (human Y4 receptor; Table 6): > 10000 nM

Source: patent US7189720B2 (H. Lundbeck A/S, priority 1999, dated 2007)
